Experimental data as given in US12648945B2, “Compositions and methods for treating systemic lupus erythematosus” (ASCENTAGE PHARMA (SUZHOU) CO., LTD., priority 2020, dated 2026).

How the values were obtained:
Mcl-1 = Mcl-1 (Homo sapiens, UniProt Q07820); experiment: FP saturation binding of fluorescent probe to Mcl-1; conditions: 2 nM probe
Text: Bcl-XL, and Mcl-1, respectively.

MRL/lpr mice [1] = experiment: Lymph node (lymphadenopathy) score in MRL/lpr mouse model of SLE; type: in vivo; conditions: week 18, p<0.0001 vs vehicle
Text: (§1) Female MRL/MpJ-Fas lpr/J mice (18-20 g, 7-8 weeks old) were obtained from The Jackson Laboratory. These mice are homozygous for the lymphoproliferation spontaneous mutation (Fas^lpr), and show systemic autoimmunity, massive lymphadenopathy associated with proliferation of aberrant T cells, arthritis, and immune complex glomerulonephrosis. Thus, these mice are useful as a model in the study of systemic lupus erythematosus (SLE).
(§2) Animals were housed and handled in a temperature-controlled environment with a 12-h light/12-h dark cycle. […] The protocols and procedures involving the care and use of animals were approved by the Institutional Animal Care and Use Committee (IACUC) of WuXiAppTec (Shanghai) Co., Ltd. (Shanghai, China).
Lymph nodes were scored weekly throughout the study, and were expressed using a scoring system from 0 to 6 based on the diameter of lymph nodes (0—normal; 1—<1 cm in one site; 2—<1 cm in two sites; 3—<1 cm in three sites; 4—>1 cm in one site and <1 cm in two sites); 5—>1 cm in two sites and <1 cm in one site; 6—>1 cm in three sites).

MRL/lpr mice [2] = experiment: Skin lesion score in MRL/lpr mouse model of SLE; type: in vivo; conditions: week 18, p<0.0001 vs vehicle
Text: as §1, §2
Skin lesions were scored every week starting from week 12 and were expressed using a scoring system from 0 to 4 (0—normal; 1—small lesion with diameter between 2 to 4 mm; 2—lesion area
<0.5 cm^2; 3—lesion area between 0.5 cm^2 to 1 cm^2; 4—lesion area >1 cm^2).

MRL/lpr mice [3] = experiment: Kidney histopathological scores of lupus nephritis in MRL/lpr mouse model of SLE; type: in vivo; conditions: week 18
Text: as §1, §2
At the end of the study, the spleen and lymph nodes were collected and weighed. […] The histopathological score was evaluated microscopically in a blinded manner, vide infra.
The histopathological score was evaluated microscopically in a blinded manner. The […] glomerulonephritis score (GN score) was evaluated using scoring from 0 to 4 (0—normal; 1—mild, focal or early proliferation; 2—moderate or definite proliferation and increased matrix; 3—diffuse and focal or diffuse proliferation; 4—severe diffuse proliferation with crescent/sclerosis). […]

MRL/lpr mice [4] = experiment: Urine protein (Coomassie Brilliant Blue assay) in MRL/lpr mouse model of SLE; type: in vivo; conditions: week 18
Text: as §1, §2
Urine protein was individually evaluated in each mouse on a biweekly basis using Coomassie Brilliant Blue (CBB) assay with a urine protein test kit (Nanjing Jiancheng Biotechnology Institute, Jiangsu, China).

MRL/lpr mice [5] = experiment: Serum anti-dsDNA autoantibody ELISA in MRL/lpr mouse model of SLE; type: in vivo; conditions: end of study
Text: as §1, §2
Anti-dsDNA autoantibody levels were measured by ELISA. Briefly, a 96-well flat plate was coated with 10 μg/mL calf thymus ds-DNA (Sigma-Aldrich, MA, USA) at 4° C. overnight. After washing with PBS containing 0.05% Tween 20 (PBS-T) and blocking with 1% bovine serum albumin, serum samples (4000× dilution) were added and incubated for 1 h at room temperature. […] Lastly, ultra TMB-ELISA substrate solution (Pierce Biotechnology, IL, USA) was added and incubated for another 30 min, and the OD values at […] were recorded after the reaction was stopped.

MRL/lpr mice [6] = experiment: Flow cytometry lymphocyte counts in PBMC, spleen and kidney of MRL/lpr mice; type: in vivo, mouse; conditions: 100 mg/kg po qd
Text: as §1, §2
The spleens and kidneys were harvested from the mice at the conclusion of the study (week 18) and digested into single-cell suspensions. Peripheral blood mononuclear cell (PBMC) were obtained after lysing red blood cells in the whole blood. Cells were stained with the following florescence-labelled antibodies: PerCP-Cyanine5.5-conjugated anti-mouse CD8a (BD Biosciences), AF700-conjugated anti-mouse CD3 (BD Biosciences), PE-eFluor610-conjugated anti-mouse B220 (BD Biosciences), e506-conjugated anti-mouse CD45 (BD Biosciences), BV605-conjugated anti-mouse CD138 (BioLegend), and BV711-conjugated anti-mouse CD4 (BioLegend).
All cells were primarily gated on live lymphocytes based on forward scatter (FCS) and side scatter (SSC). Samples were analyzed on a flow cytometer (BD FACSCalibur, USA) to count the number of each subtype of lymphocytes.
Of note, the reduction of double negative T cells were most significant compared to other lymphocytes. […] Without being bound by theory, the reduced infiltration by pro-inflammatory CD4+ cells and double-negative T cells may be responsible in part for the observed efficacy in treating lupus nephritis.

[7] = 30 mg/kg po qd, p<0.05 vs vehicle
[8] = 100 mg/kg po qd, p<0.0001 vs vehicle

Sequence of Mcl-1 (Q07820 whole entry): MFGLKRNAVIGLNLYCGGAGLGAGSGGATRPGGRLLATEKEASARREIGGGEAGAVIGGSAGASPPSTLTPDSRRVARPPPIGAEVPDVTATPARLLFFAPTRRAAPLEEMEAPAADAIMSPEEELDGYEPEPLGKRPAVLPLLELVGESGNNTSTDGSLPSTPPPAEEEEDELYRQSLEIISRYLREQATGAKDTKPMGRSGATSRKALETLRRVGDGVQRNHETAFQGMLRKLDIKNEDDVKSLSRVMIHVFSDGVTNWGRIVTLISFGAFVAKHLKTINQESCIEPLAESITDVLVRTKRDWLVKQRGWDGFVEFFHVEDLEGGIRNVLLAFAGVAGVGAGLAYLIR

Which Kd (Mcl-1) does the source give for “Flu-BID: Fluorescein labeled BID (79-99) peptide, fluorescent probe in FP assay for Mcl-1” here?
The Kd was 6.9 ± 0.9 nM.

With `O=C(NS(=O)(=O)c1ccc(NC[C@H]2COCCO2)c([N+](=O)[O-])c1)c1ccc(N2CCN(CC3=C(c4ccc(Cl)cc4)CC4(CCC4)CC3)CC2)cc1Oc1cnc2[nH]ccc2c1` [Compound 1, (S)-N-((4-(((1,4-dioxan-2-yl)methyl)amino)-3-nitrophenyl)sulfonyl)-2-((1H-pyrrolo[2,3-b]pyridin-5-yl)oxy)-4-(4-((6-(4-chlorophenyl)spiro[3.5]non-6-en-7-yl)methyl)piperazin-1-yl)benzamide] as the compound, how does the “lymphadenopathy score (0 to 6)” value (MRL/lpr mice [1]; 30 mg/kg po qd) read?
The value was 2.7±0.4.

What about the “lymphadenopathy score (0 to 6)” value (MRL/lpr mice [1]; 100 mg/kg po qd) of the same compound?
The value was 1.6±0.4.

And the skin lesion score (MRL/lpr mice [2]; 30 mg/kg po qd)?
The skin lesion score was “significantly reduced”.

What about the skin lesion score (MRL/lpr mice [2]; 100 mg/kg po qd) of the same compound?
The skin lesion score was “significantly reduced”.

What about the “individual and total lupus nephritis pathological scores, significance” value (MRL/lpr mice [3]; 100 mg/kg po qd) of the same compound?
The value was “Statistical significance was achieved”.

And the “pathological score (glomerulonephritis, interstitial nephritis, vasculitis)” value (MRL/lpr mice [3]; 30 and 100 mg/kg po qd)?
The value was “dose-dependently reduced”.

And the urine protein level (MRL/lpr mice [4]; [7])?
Its urine protein level is 536.1 ± 146.8 mg/L.

What about the urine protein level (MRL/lpr mice [4]; [8]) of the same compound?
The urine protein level was 266.8 ± 37.7 mg/L.

What about the “serum anti-dsDNA autoantibody level, % of the vehicle group” value (MRL/lpr mice [5]; [7]) of the same compound?
Its value is 76.8%.

What about the “serum anti-dsDNA autoantibody level, % of the vehicle group” value (MRL/lpr mice [5]; [8]) of the same compound?
The value was 56.4%.

What about the “number of lymphocytes in PBMC (total, T, CD4+ T, CD8+ T, double-negative T, B, activated B, plasmablasts, plasma cells, CD138+ cells)” value (MRL/lpr mice [6]; week 18, PBMC (FIG. 6)) of the same compound?
The value was “significantly reduced”.

And the “number of pro-inflammatory CD4+ T cells and double-negative T cells in the kidney” value (MRL/lpr mice [6]; week 18, kidney (FIG. 8))?
Its value is “significantly reduced”.

What about the “number of lymphocytes in spleen (total, T, CD4+ T, CD8+ T, double-negative T, B, activated B, plasmablasts, plasma cells, CD138+ cells)” value (MRL/lpr mice [6]; week 18, spleen (FIG. 7)) of the same compound?
Its value is “significantly reduced”.
